ChEMBL document CHEMBL1201862, “PubChem BioAssay data set” (2004)
Active and inactive are the calls of the source.

Key:
[1] = biological target: ATP-dependent molecular chaperone HSP82 (Candida albicans (strain WO-1) (Yeast), UniProt C4YTQ8); test: loss of DOC-induced GRE-beta-galactosidase reporter signal, dose response, Hsp90 inhibitor project, S. cerevisiae, luminescence (AID 2400); type: functional, cell-based;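 also: beta-galactosidase luminescence from glucocorticoid response element reporter as proxy for Hsp90 function; inhibitor potency where signal loss means Hsp90 inhibition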
[2] = NIH-3T3 fibroblast cytotoxicity, dose response, cytotoxicity control, cell-based, fluorescence, Alamar Blue, secondary assay (AID 2327); type: functional;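 also: NIH-3T3 mouse fibroblasts cultured with fluconazole at 8 µg/mL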
[3] = C. albicans growth with fluconazole, confirmation, fluorescence, retest (AID 2467); type: functional, cell-based
[4] = biological target: Serine/threonine-protein phosphatase (Candida dubliniensis (strain CD36 / CBS 7987 / NCPF 3949 / NRRLY-17841) (Yeast), UniProt B9W6M3); test: calcineurin pathway inhibitors in yeast reporter, dose response, S. cerevisiae, CDRE-lacZ, luminescence, secondary (AID 2388); type: functional, cell-based;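 also: yeast reporter cells carrying a calcineurin-responsive lacZ construct stimulated with calcium chloride; luminescent beta-galactosidase reporter signal in whole cells rather than isolated phosphatase activity; potency for inhibition where a drop in reporter signal means calcineurin blockade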
[5] = biological target: Dual specificity protein kinase CLK1 (Homo sapiens, UniProt P49759); test: CLK1 kinase inhibitors, off-target check, dose response, selectivity assay for Dyrk1A inhibitor project, biochemical, cherry-picked samples (AID 588811)
[6] = biological target: Dual specificity tyrosine-phosphorylation-regulated kinase 1A (Rattus norvegicus, UniProt Q63470); type: biochemical, Homo sapiens
[7] = biological target: T1, Sentrin-specific protease 1 (Homo sapiens, UniProt Q9P0U3); test: Dose response confirmation of small molecule inhibitors of the catalytic domain of the SUMO protease, SENP1 in a FRET assay.; type: functional; conditions: read-out: IC50_Mean
T1 sequence (Q9P0U3 whole entry): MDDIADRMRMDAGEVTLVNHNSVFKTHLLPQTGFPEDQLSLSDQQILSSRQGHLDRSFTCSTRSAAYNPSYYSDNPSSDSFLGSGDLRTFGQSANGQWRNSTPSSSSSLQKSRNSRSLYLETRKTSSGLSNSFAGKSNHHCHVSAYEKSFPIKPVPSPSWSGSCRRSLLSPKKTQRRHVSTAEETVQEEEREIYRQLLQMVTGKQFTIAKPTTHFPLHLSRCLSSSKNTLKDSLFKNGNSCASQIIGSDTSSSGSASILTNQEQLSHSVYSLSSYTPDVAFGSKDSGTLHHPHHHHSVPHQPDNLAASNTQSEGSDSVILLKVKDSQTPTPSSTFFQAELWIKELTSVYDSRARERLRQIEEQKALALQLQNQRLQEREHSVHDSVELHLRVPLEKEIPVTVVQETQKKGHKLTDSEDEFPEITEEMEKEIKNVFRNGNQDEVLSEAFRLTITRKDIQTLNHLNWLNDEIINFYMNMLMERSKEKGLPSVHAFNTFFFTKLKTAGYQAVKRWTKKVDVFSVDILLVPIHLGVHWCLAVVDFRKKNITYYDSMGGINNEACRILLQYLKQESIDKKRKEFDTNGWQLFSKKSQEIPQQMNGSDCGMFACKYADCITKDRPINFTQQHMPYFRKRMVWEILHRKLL

[8] = biological target: T1, Sentrin-specific protease 1; test: potency of human SENP1 inhibitors, dose response, biochemical, kinetic FRET (AID 651697); type: functional; conditions: read-out: IC50_Mean
[9] = biological target: T2, Endoribonuclease toxin MazF (Escherichia coli K-12, UniProt P0AE70); test: MazF toxin RNase activators, dose response, biochemical, fluorescence, single-stranded RNA substrate, uHTS hits (AID 588481); type: functional
T2 sequence (P0AE70 whole entry): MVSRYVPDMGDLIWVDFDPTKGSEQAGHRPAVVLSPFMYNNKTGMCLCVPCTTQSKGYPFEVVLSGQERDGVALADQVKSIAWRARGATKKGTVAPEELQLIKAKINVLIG

[10] = biological target: T2, Endoribonuclease toxin MazF; test: fluorescent RNA oligo signal without MazF, dose response, counter-screen for MazEF activator project, biochemical, fluorescence, single-stranded RNase substrate (AID 588502); type: functional
Hexokinase-1 = biological target: T3, Hexokinase-1 (Homo sapiens, UniProt P19367); test: SAR analysis of small molecule inhibitors of hexokinase domain containing I (HKDC1) in the hexokinase 1 selectivity assay. [Related pubchem assays (depositor defined):AID493160, AID493190]; type: functional
T3 sequence (P19367 whole entry): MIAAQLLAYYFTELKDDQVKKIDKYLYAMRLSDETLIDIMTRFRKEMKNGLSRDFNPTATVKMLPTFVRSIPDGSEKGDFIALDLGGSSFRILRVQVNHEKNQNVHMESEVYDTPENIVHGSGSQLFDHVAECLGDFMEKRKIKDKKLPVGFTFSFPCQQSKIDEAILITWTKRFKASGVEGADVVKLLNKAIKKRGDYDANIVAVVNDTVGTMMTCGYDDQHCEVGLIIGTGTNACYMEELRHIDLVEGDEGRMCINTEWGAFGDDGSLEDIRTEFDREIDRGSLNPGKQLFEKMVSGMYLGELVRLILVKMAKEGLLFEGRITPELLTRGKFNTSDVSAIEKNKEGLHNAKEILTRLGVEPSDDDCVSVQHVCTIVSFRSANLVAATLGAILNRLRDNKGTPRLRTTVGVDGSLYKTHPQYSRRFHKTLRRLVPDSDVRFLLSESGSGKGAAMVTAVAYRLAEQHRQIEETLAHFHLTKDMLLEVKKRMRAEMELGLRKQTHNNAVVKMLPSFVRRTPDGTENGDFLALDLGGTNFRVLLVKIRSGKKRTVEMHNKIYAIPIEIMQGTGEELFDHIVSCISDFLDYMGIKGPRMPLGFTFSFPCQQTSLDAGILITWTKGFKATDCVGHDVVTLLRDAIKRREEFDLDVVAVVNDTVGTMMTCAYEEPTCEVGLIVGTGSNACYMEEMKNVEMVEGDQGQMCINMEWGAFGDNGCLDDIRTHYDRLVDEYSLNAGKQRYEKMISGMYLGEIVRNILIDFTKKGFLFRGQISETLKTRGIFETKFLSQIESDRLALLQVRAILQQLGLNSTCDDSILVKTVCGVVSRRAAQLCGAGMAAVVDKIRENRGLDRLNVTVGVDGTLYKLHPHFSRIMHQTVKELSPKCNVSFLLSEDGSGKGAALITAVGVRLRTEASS

Hexokinase HKDC1 = biological target: T4, Hexokinase HKDC1 (Homo sapiens, UniProt Q2TB90); test: SAR analysis of small molecule inhibitors of hexokinase domain containing I (HKDC1). [Related pubchem assays (depositor defined):AID493160, AID493190]; type: functional
T4 sequence (Q2TB90 whole entry): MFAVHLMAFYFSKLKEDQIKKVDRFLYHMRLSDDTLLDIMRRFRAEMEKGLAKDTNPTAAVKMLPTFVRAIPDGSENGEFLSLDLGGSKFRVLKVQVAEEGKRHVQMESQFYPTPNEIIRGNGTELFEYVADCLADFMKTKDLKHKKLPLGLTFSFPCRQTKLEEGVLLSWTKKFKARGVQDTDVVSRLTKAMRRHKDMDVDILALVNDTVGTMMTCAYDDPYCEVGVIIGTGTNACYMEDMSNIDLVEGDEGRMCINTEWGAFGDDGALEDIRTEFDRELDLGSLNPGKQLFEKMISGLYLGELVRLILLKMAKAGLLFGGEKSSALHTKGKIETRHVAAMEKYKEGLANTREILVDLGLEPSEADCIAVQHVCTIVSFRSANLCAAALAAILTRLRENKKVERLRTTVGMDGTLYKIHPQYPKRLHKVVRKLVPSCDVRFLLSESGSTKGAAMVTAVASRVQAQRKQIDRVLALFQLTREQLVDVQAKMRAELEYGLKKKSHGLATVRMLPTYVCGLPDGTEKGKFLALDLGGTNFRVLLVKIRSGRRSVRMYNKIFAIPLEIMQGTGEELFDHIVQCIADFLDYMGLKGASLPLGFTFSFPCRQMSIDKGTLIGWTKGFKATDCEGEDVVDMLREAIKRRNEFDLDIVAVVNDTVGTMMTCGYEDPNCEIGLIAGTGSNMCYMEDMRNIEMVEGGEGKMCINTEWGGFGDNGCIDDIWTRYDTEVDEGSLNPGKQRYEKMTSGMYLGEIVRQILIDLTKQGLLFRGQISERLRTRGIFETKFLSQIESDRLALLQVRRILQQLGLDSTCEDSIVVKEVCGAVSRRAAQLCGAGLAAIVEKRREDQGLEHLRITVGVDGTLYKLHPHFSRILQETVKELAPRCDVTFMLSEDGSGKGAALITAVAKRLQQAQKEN

Beta Lactamase = Beta Lactamase (Pseudomonas aeruginosa, UniProt Q932Y6); test: beta-lactamase reporter inhibitor potency, dose response, artefact control for TLR9-MyD88 binding inhibitor project, BLA reporter cells, FRET fluorescence (AID 588341); type: cell-based;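 also: cell based assay in CHO-K1 cells stably expressing beta-lactamase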
CHO = test: cytotoxicity in TLR9-MyD88 CHO cells, dose response, cytotoxicity control for TLR9-MyD88 binding inhibitor project, cell-based, luminescence (AID 588339); type: functional, hamster; conditions: Cricetulus griseus;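 also: CHO cells stably coexpressing TLR9 and MyD88 fusions from primary screen; compound exposure lasted 48 hours before viability readout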
[11] = biological target: T5, Kappa-type opioid receptor (Homo sapiens, UniProt P41145); type: functional
[12] = microbe, parasite or virus in culture; type: functional; conditions: Mycobacterium tuberculosis
INS1 = test: beta cell apoptosis inhibitors, cytokine rescue, dose response, luminescence, retest (AID 449756); type: functional, cell-based; conditions: Rattus norvegicus;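 also: cell death triggered by IL-1 beta plus TNF-alpha plus IFN-gamma mixture; protective hits raise ATP signal compared with cytokine alone wells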
Nonstructural protein 1 = Nonstructural protein 1 (Influenza A virus, UniProt Q194T2); type: functional, Influenza A virus (A/California/07/2009(H1N1))
Streptococcus = test: Group A Streptococcus viability loss, dose response, counter-screen for streptokinase expression inhibitor project, luminescence, BacTiterGlo (AID 1915); type: functional, organism-based; conditions: Streptococcus;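 also: potency for reduction of bacterial viability or growth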
HEK293 = test: inhibitors of LMP1-driven NF-kB reporter, dose response, cell-based, HEK293, luciferase, cherry-pick (AID 588343); type: functional; conditions: Homo sapiens
[13] = biological target: T5, Kappa-type opioid receptor; type: functional; remark: listed apart in the source
Paired box protein Pax-8 = Paired box protein Pax-8 (Homo sapiens, UniProt Q06710); test: inhibitors of PAX8-driven TPO luciferase reporter, dose response, RMG-I cells, cherry-pick (AID 687027); type: functional, cell-based;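 also: luciferase reporter driven by Pax8 target thyroperoxidase promoter measured by SteadyGlo luminescence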
cells [14] = type: functional, cell-based
Streptokinase A = biological target: T6, Streptokinase A (Streptococcus pyogenes serotype M1, UniProt P10520); test: S. pyogenes streptokinase expression inhibitors, potency, dose response, plasminogen activation absorbance, OD405 (AID 1914); type: functional, Streptococcus pyogenes M1 GAS;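 also: secreted streptokinase activity via plasminogen activation per viability signal from cell pellet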
T6 sequence (P10520 whole entry): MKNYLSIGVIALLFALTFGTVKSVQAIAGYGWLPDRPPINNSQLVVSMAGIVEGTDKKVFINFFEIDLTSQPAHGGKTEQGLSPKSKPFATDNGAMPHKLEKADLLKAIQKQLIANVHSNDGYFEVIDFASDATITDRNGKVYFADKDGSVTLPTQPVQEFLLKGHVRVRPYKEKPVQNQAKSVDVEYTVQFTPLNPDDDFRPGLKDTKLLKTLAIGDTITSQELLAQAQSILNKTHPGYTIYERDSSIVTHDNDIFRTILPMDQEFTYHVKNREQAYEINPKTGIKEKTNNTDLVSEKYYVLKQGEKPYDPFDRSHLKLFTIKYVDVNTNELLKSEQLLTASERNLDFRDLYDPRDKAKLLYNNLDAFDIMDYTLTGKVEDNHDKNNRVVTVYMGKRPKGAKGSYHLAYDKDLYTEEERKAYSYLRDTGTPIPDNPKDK

[15] = cytotoxicity in HEK-293T cells, dose response, cytotoxicity control for TCR NF-kB inhibitor project, luminescence, T-cell screen hits (AID 489026); type: functional, cell-based;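 also: cells exposed to compound about 14 hours before the viability readout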
[16] = tested on: Streptococcus sp. 'group A'; test: growth inhibition of control SK(-) GAS strain, dose response, counter-screen for streptokinase expression inhibitor project, luminescence, kanamycin, BacTiterGlo, confirmation (AID 1900); type: functional, organism-based; conditions: Streptococcus sp. 'group A'
Beta-galactosidase = Beta-galactosidase (Escherichia coli, UniProt Q8VNN2); type: functional
cells [17] = type: functional, cell-based; remark: listed apart in the source

Serine/threonine-protein phosphatase, sequence (B9W6M3 whole entry): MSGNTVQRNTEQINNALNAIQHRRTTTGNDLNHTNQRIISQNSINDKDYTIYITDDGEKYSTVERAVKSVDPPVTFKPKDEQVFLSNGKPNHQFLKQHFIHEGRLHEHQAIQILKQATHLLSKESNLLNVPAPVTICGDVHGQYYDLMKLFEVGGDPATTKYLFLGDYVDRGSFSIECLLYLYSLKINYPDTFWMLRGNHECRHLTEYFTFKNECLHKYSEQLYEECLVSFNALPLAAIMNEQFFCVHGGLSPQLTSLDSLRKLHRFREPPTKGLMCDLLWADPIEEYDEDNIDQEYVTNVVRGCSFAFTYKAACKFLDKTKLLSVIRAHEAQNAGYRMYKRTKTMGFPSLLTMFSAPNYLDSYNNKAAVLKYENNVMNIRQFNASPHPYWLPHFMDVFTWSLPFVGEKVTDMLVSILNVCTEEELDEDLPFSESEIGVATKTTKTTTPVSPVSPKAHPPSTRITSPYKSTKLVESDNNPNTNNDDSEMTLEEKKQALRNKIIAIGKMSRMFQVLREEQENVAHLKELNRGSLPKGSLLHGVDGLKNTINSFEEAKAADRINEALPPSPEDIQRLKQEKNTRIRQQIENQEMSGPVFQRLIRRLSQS
ATP-dependent molecular chaperone HSP82, sequence (C4YTQ8 whole entry): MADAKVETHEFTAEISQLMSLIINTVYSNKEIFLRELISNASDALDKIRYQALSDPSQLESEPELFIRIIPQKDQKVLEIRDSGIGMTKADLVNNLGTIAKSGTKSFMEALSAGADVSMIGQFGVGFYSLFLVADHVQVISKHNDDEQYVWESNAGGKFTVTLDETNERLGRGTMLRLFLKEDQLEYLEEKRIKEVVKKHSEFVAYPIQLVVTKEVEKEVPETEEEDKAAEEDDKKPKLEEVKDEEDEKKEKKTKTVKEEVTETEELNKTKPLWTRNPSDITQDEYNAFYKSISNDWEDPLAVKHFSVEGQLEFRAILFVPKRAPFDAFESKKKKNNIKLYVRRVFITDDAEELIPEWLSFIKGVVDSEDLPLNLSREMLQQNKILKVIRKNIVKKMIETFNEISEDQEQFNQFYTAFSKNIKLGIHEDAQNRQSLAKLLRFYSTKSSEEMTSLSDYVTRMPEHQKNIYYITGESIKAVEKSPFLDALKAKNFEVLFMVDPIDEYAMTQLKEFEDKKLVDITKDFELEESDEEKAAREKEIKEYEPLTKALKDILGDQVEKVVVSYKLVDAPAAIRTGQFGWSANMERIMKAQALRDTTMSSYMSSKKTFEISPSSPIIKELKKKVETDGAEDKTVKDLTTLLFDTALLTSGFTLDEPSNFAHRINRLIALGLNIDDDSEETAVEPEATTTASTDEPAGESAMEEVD
T5 sequence (P41145 whole entry): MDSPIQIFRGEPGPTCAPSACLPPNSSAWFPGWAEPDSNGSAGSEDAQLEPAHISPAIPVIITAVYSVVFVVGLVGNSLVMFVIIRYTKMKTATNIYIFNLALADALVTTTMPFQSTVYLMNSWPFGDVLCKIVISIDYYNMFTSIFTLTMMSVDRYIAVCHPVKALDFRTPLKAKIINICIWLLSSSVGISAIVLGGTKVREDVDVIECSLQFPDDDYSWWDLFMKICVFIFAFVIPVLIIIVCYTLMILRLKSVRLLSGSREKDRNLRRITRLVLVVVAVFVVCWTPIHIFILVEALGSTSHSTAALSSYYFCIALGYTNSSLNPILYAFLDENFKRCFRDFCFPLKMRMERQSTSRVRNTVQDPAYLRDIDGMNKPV
Nonstructural protein 1, sequence (Q194T2 whole entry): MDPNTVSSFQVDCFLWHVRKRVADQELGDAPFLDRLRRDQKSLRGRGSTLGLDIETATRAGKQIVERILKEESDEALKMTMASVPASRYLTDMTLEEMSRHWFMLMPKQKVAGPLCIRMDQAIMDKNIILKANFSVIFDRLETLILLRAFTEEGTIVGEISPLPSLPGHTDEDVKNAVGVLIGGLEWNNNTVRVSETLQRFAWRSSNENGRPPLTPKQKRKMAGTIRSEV
Beta Lactamase, sequence (Q932Y6 whole entry, the tested form may be a part): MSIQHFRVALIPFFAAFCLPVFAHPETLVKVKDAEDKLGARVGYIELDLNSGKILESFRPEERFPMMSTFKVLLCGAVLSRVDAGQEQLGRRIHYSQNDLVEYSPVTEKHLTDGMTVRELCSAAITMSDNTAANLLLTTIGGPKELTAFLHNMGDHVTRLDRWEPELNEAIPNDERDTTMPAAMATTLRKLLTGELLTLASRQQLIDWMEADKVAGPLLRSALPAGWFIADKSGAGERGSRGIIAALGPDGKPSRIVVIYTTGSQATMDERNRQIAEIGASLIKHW
Paired box protein Pax-8, sequence (Q06710 whole entry): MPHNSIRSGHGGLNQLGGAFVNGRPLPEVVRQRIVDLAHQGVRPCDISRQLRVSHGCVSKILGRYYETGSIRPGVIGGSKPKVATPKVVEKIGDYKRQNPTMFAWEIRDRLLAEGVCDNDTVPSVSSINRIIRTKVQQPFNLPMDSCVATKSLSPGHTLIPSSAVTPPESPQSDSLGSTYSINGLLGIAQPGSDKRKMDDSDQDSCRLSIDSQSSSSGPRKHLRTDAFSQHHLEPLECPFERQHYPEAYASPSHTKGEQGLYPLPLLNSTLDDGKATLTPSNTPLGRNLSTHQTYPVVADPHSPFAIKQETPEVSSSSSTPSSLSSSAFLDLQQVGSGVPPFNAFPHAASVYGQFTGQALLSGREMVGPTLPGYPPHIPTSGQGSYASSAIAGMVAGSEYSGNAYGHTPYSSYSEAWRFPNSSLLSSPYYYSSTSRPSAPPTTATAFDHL
Dual specificity protein kinase CLK1, sequence (P49759 whole entry): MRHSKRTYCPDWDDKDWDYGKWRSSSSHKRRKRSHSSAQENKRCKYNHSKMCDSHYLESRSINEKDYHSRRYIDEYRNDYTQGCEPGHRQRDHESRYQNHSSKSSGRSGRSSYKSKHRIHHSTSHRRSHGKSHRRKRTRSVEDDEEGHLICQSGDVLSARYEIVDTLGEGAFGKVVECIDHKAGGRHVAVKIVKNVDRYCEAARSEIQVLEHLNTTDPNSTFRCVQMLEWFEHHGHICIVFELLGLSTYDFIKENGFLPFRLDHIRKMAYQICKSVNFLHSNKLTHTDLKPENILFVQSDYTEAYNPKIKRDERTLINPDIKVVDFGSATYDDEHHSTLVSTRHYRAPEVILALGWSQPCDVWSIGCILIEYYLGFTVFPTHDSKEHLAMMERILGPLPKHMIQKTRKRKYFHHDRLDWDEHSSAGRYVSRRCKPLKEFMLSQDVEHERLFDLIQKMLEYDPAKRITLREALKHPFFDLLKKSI
Beta-galactosidase, sequence (Q8VNN2 whole entry): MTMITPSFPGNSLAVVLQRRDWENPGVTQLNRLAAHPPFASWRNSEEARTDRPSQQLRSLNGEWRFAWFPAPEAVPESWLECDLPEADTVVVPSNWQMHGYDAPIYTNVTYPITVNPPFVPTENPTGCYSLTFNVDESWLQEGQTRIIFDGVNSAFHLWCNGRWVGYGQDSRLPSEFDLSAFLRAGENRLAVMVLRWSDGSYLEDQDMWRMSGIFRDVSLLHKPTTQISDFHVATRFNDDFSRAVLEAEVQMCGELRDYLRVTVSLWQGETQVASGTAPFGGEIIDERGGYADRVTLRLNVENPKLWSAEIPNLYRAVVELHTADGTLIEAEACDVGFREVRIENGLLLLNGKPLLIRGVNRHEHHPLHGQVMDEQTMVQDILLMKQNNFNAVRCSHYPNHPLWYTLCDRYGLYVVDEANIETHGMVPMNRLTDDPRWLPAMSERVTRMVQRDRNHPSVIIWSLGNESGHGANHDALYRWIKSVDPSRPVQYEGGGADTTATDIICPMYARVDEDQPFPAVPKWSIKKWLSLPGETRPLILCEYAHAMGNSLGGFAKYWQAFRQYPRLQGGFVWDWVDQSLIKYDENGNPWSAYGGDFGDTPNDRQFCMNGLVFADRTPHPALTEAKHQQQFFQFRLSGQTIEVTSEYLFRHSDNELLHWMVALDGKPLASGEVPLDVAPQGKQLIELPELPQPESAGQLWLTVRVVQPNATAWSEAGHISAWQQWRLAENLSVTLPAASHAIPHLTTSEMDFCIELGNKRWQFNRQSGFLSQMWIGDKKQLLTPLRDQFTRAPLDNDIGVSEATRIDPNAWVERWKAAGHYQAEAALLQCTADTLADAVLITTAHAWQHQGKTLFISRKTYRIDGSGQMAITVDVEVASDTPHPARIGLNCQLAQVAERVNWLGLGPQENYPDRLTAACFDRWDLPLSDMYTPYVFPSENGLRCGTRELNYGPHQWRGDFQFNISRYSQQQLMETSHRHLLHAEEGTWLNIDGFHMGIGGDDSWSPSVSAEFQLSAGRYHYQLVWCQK

**Q.** For Cc1cc(C(=O)Nc2sc3c(c2C#N)CCCC3)no1, which EC50 [1] is on record?
**A.** 24.9 µM (active)

**Q.** What about the EC50 [2] of the same compound?
**A.** > 160 µM (inactive)

**Q.** What about the EC50 [3] of the same compound?
**A.** 2.21 µM (active)

**Q.** What about the EC50 [4] of the same compound?
**A.** > 180 µM (inactive)

**Q.** What does the source list for COc1ccc(-c2cc(NCCc3ccncc3)n3ncnc3n2)cc1?
**A.** AC50 [5]: 18.6 µM (active); AC50 [6]: > 120 µM (inactive)

**Q.** With Cc1ccc2nc3sc(C(=O)NCc4ccco4)c(N)c3cc2c1 as the compound, how does the IC50 [7] read?
**A.** 7.17 µM (active)

**Q.** What about the IC50 [8] of the same compound?
**A.** 4.66 µM (active)

**Q.** What about the EC50 [9] of the same compound?
**A.** > 99 µM (inactive)

**Q.** And the EC50 [10]?
**A.** 65.2 µM (inactive)

**Q.** For O=C(Nc1cccc(C(F)(F)F)c1)c1cccc(NC(=O)c2ccc3[nH]nnc3c2)c1, which IC50 (Hexokinase-1) is on record?
**A.** > 80 µM (inactive)

**Q.** What about the IC50 (Hexokinase HKDC1) of the same compound?
**A.** > 80 µM (inactive)

**Q.** Which results are given for CCC(=O)c1ccc(/C=C/c2nc3ccccc3n2C)o1?
**A.** IC50 (Beta Lactamase): 5.11 µM (active); IC50 (CHO): > 49.7 µM (inactive)

**Q.** Which EC50 [9] does the source give for Cc1cc(C)n(-c2nc3ccccc3nc2Nc2ccc3[nH]c(O)nc3c2)n1 here?
**A.** > 99 µM (inactive)

**Q.** What about the EC50 [10] of the same compound?
**A.** > 99 µM (inactive)

**Q.** Which results are given for O=C(Nc1cccc(C(F)(F)F)c1)c1cccc(NC(=O)c2cccc3ccccc23)c1?
**A.** IC50 (Hexokinase-1): > 80 µM (inactive); IC50 (Hexokinase HKDC1): > 80 µM (inactive)

**Q.** Which results are given for C=CCNC(=S)N/N=C(\C)c1ccccn1?
**A.** IC50 [11]: 3.27 µM (active); CC50 [12]: < 0.08 µM (active); AC50 (INS1): < 0.195 µM (active); IC50 (Nonstructural protein 1): 2.5 µM (active); EC50 (Streptococcus): > 150 µM (not active); EC50 [1]: > 150 µM (inactive); AC50 (HEK293): 0.493 µM (active); IC50 [13]: > 32 µM; AC50 (Paired box protein Pax-8): < 0.26 µM (active); EC50 [2]: 40.7 µM (inconclusive); EC50 (cells [14]): 9.83 µM (active); EC50 (Streptokinase A): > 150 µM (not active); EC50 [3]: 0.146 µM (active); IC50 [15]: > 80 µM (inactive); EC50 [16]: 2 µM (active); EC50 (Beta-galactosidase): > 31.5 µM (inactive); EC50 (cells [17]): > 350 µM (not active); EC50 [4]: > 180 µM (inactive)
